Results reported in patent publication US9095600B2, “Prophylactic and/or therapeutic agent for cardiac infarction” (OSAKA UNIVERSITY, priority 2007, dated 2015).

Assays:
[1] = Hemodynamic test (blood pressure and heart rate during intravenous injection); type: in vivo, Male SD rats; conditions: rat, i.v.
Protocol: Male SD rats (nine weeks old, body weight: 270 g to 320 g, supplied by Japan SLC, Inc.) were employed. Each of the rats was anesthetized with pentobarbital sodium (30 mg/kg, intraperitoneal injection) and then fixed in the dorsal position. A tube was orally inserted into the trachea, and artificial ventilation was carried out by means of a ventilator for small animals. A catheter (INTRAMEDIC Polyethylene Tubing PE50, CLAY ADAMS) was inserted into the femoral artery and the femoral vein, and systolic blood pressure, diastolic blood pressure, and mean blood pressure were measured in the femoral artery. Heart rate was measured by means of an electrocardiograph. A drug sample was injected through the catheter indwelled in the femoral vein by means of a syringe pump (Model PHD 4400, HARVARD). Specifically, after stabilization of hemodynamics, empty liposomes (n=8), adenosine only (n=8), and adenosine-retaining liposomes (n=8) were injected transvenously, respectively.
In an empty liposome group, injection was carried out at 0.05 mL/minute for 10 minutes (one minute, five minutes, and 10 minutes after initiation of injection, blood pressure and heart rate were evaluated), and, for five minutes after completion of injection, blood pressure and heart rate were evaluated. Thereafter, evaluation was carried out in a manner similar to that described above at an injection rate of 0.1 mL/minute, 0.2 mL/minute, or 0.4 mL/minute. In an adenosine-only group or an adenosine-retaining liposome group, injection was initiated at 0.05 mL/minute (225 μg/kg/minute as reduced to adenosine), and cumulative administration was carried out through the same protocol as in the case of the empty liposome group.

[2] = tested on: ischemia-reperfusion model rat; assay: Ischemia-reperfusion test (rat), myocardial infarct size; type: in vivo, Male SD rats; conditions: 900 μg/kg/minute i.v. for 10 minutes, injection before ischemia, 72 hours after reperfusion
Protocol: Similar to the case of the hemodynamic test, male SD rats were employed. Each of the rats was anesthetized and artificially ventilated, and then thoracotomy was carried out at the thoracic sidewall. The left anterior descending coronary artery (LAD) was ligated by means of a suturing needle with suture for 30 minutes, and then blood flow was restored, to thereby prepare an ischemia-reperfusion model. A drug sample was injected through a catheter (INTRAMEDIC Polyethylene Tubing PE50, CLAY ADAMS) indwelled in the femoral vein.
In this test, an adenosine-retaining liposome group were divided into two groups: a group received adenosine-retaining liposomes before ischemia (injected for 10-minute before ischemia), and a group received adenosine-retaining liposomes before reperfusion (injected for 10-minute initiated 5 minutes before reperfusion). In the other groups, injection was carried out before ischemia (injected for 10-minute before ischemia). […]
Each of the rats was anesthetized 72 hours after reperfusion, and then thoracotomy was carried out again. […] After staining, the specimens were photographed, and an ischemic risk area (non-Evans blue-stained area) and an infarct area (non-TTC-stained area) were determined by means of Win ROOF Version 5.5 (product of Mitani Corporation). Infarct size was calculated by dividing the infarct area by the ischemic risk area.

[3] = cited from earlier work
[4] = ten minutes after initiation of adenosine injection at 225 μg/kg/minute
[5] = ten minutes after initiation of adenosine injection at 450 μg/kg/minute
[6] = ten minutes after initiation of adenosine injection at 900 μg/kg/minute
[7] = ten minutes after initiation of adenosine injection at 1,800 μg/kg/minute

## Nc1ncnc2c1ncn2[C@@H]1O[C@H](CO)[C@@H](O)[C@H]1O [adenosine, Adenosine]
[1]; [4]
  heart rate: 357±25 bpm
  mean blood pressure: 101±12 mmHg
[1]; [5]
  heart rate: 324±25 bpm
  mean blood pressure: 93±14 mmHg
[1]; [6]
  heart rate: 296±12 bpm
  mean blood pressure: 84±11 mmHg
[1]; [7]
  heart rate: 236±17 bpm
  mean blood pressure: 75±11 mmHg
[2]
  myocardial infarct size (infarct area / ischemic risk area): 25.2±1.9%
[3]
  half life in blood: < 10 s
